According to publication PMC7417534, “Cytochrome P450 inhibition potential and initial genotoxic evaluation of 14-O-[(4,6-diaminopyrimidine-2-yl)thioacetyl] mutilin” (Scientific Reports, 2020):
Read-outs that look alike come from different tables or passages of the source.

What was measured:
[1] = biological target: T1, CYP1A2 (Rattus norvegicus, UniProt P04799); experiment: Cocktail CYP inhibition in rat liver microsomes, CYP1A2 (phenacetin); assay type: in vitro ADME; conditions: cocktail method, read-out: IC50 values, CYP1A2 in RLMs
T1 construct: containing 100 μL RLMs or HLMs; tissue Research Institute for Liver Diseases (Shanghai) Co., Ltd; host or cells: male SD rat liver microsomes
Method: (§1) We used the cocktail method to study the inhibition activities of DPTM against CYP enzymes in RLMs and HLMs with slight modification. DPTM (250 μmol) was dissolved in 1.25 mL methanol to a solution and then diluted with methanol and water to 2, 10, 20, 100, 200, 400, 1,000 and 2000 μM, respectively. The obtained serial dilutions (10 μL) were added to the incubation mixtures (200 μL total volume), containing 100 μL RLMs or HLMs (final concentration was 5 μg/μL, respectively), 10 μL glucose-6-phosphate (final concentration was 1 mM), 10 μL glucose-6-phosphate dehydrogenase (final concentration was 0.1 U/L), 20 μL potassium phosphate buffer (final concentration was 0.01 M) and 20 μL MgCl2 (final concentration was 2 mM), to give the final concentrations were 0.1, 0.5, 1, 5 10, 20, 50, and 100 μM, respectively. For the groups that in the absence of DPTM, 10 μL methanol (1%) replaced the DPTM and was added to the incubation mixtures. […] The final concentration of methanol in all the incubation mixtures, including the blank group, was […]. […] The determined metabolic substrates were used for calculating the relative enzyme activity (Erel) by the following formula: Erel (%) = Ci(n)/Ci(0) × 100%, in which Ci(n) was the determined metabolic substrates in the presence of varying concentrations of DPTM and Ci(0) was the determined metabolic substrates in the absence of DPTM. […]

[2] = test system: S. typhimurium TA97; experiment: Ames test, strain TA97; assay type: cell-based, Salmonella typhimurium; conditions: − S9
Text: (§2) S. typhimurium strains TA97, TA98, TA100, TA102 and TA1535 were stored and maintained as provided in the standard protocol. Each of the strains was checked for their genetic integrity prior to the experiment, and tested for biotin dependence, histidine dependence, biotin and histidine dependence, rfa marker (crystal violet) and presence of the plasmid pKM101 (ampicillin resistance) or pAQ1 (tetracycline resistance). Different strains were used to identify different types of mutations.
(§3) The test was carried out at five different concentrations of DPTM. […] Then 1 mL solution was diluted with distilled water by two fold. […] The negative control used in this experiment was 1 mL DMSO which was directly incorporated into 9 mL melted top agar.
(§4) The Ames test of DPTM was conducted as described in the literatures[42],[43] with some modifications. Briefly, 1 mL of strain was inoculated into 5 mL of nutrient broth, followed by incubating overnight at 37 °C. The mixture comprised respective strains, drug, negative and positive controls with the S9 for testing in the presence of metabolic activation system. For testing without S9, 1 × phosphate buffer saline (PBS, pH 7.4) replaced the S9 mix. The obtained mixtures were added into the tube, mixed well and incubated at 37 °C for 20 min. Then, the top agar was melted and 2 mL of this melted top agar was added to each tube and gently mixed. […] The results were expressed as the number of revertant colonies per plate. The experiments were performed in triplicate.

[3] = biological target: T2, CYP1A2 (Homo sapiens, UniProt P05177); experiment: Cocktail CYP inhibition in human liver microsomes, CYP1A2 (phenacetin); assay type: in vitro ADME; conditions: cocktail method, read-out: IC50 values, CYP1A2 in HLMs
T2 construct: containing 100 μL RLMs or HLMs; tissue Research Institute for Liver Diseases (Shanghai) Co., Ltd; host or cells: pooled human liver microsomes
Method: as §1

[4] = test system: CYP3A; experiment: Cocktail CYP inhibition in rat liver microsomes, CYP3A (dapsone); assay type: in vitro ADME; conditions: probe dapsone (55 μM), cocktail method, read-out: IC50 values, CYP3A in RLMs
Method: as §1

[5] = test system: S. typhimurium TA102; conditions: − S9
Text: as §2
The test was carried out at five different concentrations of DPTM. […] Then 1 mL solution was diluted with distilled water by two fold.
as §4

[6] = test system: CYP2C9 mRNA; experiment: CYP2C9 mRNA expression in Hep G2 cells (real-time PCR); assay type: cell-based, human; conditions: 2 and 4 h, 4.98, 0.16 and 0.08 mM
Method: (§5) The logarithmic growth phase Hep G2 cells were seeded into 12-well plastic plates at a density of […]. After incubation at 37 °C under 5% CO2 for 24 h, the media were then replaced with 1 mL of serial dilutions of the DPTM (4.98, 0.16 and 0.08 mM) in fresh media. When cells were incubated for 2, 4 and 12 h at 37 °C under 5% CO2, the RNA was isolated using the Trizol reagent according to the manufacturer’s protocol. Total RNA (5 μL) was transcribed into cDNA by using the PrimeScript RT reagent Kit (Perfect Real Time). The obtained cDNA (5 μL) was added for 45 cycles of PCR amplification to detect the mRNA expression (the primers and sequences used herein were given in Table 3) using the ABI Villa TM7Dx real-time PCR system (Gaithersburg, USA). Glyceraldehyde-3-phosphate dehydrogenase (GAPDH) was used as reference gene. All reactions were performed in a final volume of 20 μL (10 μL of 2 × SYBR Green Real-time PCR Master Mix, 2 μL of cDNA and 2 μL of the primers and 6 μL DEPC water) and executed in triplicate.

[7] = test system: CYP2E1 mRNA; experiment: CYP2E1 mRNA expression in Hep G2 cells (real-time PCR); assay type: cell-based, human
Method: as §5

[8] = test system: S. typhimurium TA100; conditions: − S9
Text: as §2, §3, §4

[9] = test system: CYP3A4 mRNA; experiment: CYP3A4 mRNA expression in Hep G2 cells (real-time PCR); assay type: cell-based, human; conditions: 2 and 4 h, 4.98, 0.16 and 0.08 mM
Method: as §5

[10] = test system: S. typhimurium TA98; experiment: Ames test, strain TA98; assay type: cell-based, Salmonella typhimurium; conditions: − S9
Text: as §2, §3, §4

T2 sequence (P05177 whole entry): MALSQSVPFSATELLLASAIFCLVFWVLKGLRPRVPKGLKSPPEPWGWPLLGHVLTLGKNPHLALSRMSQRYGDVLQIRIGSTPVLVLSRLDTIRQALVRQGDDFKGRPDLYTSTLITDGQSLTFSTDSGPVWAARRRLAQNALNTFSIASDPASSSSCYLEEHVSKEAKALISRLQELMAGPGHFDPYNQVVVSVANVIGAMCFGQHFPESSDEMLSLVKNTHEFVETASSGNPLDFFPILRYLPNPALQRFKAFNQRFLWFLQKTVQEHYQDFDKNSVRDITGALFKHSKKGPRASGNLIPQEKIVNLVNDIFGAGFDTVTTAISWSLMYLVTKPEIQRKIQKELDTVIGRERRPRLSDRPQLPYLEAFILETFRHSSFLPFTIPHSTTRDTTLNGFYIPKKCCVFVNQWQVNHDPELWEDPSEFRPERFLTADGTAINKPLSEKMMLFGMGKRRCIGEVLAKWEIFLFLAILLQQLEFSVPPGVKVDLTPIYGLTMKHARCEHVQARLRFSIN
T1 sequence (P04799 whole entry): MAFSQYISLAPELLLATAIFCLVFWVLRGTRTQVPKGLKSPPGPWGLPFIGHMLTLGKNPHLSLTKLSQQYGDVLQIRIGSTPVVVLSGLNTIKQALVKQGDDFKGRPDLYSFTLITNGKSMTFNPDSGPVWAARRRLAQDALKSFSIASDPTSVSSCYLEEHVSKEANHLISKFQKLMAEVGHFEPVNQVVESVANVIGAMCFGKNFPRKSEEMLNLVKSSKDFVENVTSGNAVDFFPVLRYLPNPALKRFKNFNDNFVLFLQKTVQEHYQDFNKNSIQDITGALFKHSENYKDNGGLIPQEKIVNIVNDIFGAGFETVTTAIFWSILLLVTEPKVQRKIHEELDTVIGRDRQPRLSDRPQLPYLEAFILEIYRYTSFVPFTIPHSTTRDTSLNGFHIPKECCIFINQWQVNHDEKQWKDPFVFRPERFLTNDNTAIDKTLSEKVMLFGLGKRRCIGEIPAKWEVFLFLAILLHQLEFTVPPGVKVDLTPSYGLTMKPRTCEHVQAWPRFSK

## C=CC1(C)CC(OC(=O)CSc2nc(N)cc(N)n2)C2(C)C(C)CCC3(CCC(=O)C32)C(C)C1O (centres unmarked) [DPTM, 14-O-[(4,6-Diaminopyrimidine-2-yl)thioacetyl] mutilin]
[1]
  IC50: > 100 µM
[2]; dose 0.50 μmol/plate
  revertant colonies per plate, TA97: 165 ± 14 CFU
[2]; dose 1.00 μmol/plate
  revertant colonies per plate, TA97: 171 ± 8 CFU
[2]; dose 1.99 μmol/plate
  revertant colonies per plate, TA97: 174 ± 17 CFU
[2]; dose 3.98 μmol/plate
  revertant colonies per plate, TA97: 169 ± 14 CFU
[3]
  IC50: > 100 µM
[4]
  IC50 at 15 min: 10 ± 2 µM
[5]; dose 0.25 μmol/plate
  revertant colonies per plate, TA102: 256 ± 20 CFU
[5]; dose 0.50 μmol/plate
  revertant colonies per plate, TA102: 241 ± 10 CFU
[5]; dose 1.00 μmol/plate
  revertant colonies per plate, TA102: 260 ± 17 CFU
[5]; dose 1.99 μmol/plate
  revertant colonies per plate, TA102: 264 ± 15 CFU
[5]; dose 3.98 μmol/plate
  revertant colonies per plate, TA102: 268 ± 12 CFU
[6]
  CYP2C9 mRNA expression versus control: significantly increase
[7]; 4 h, three doses
  CYP2E1 mRNA level versus control: no significantly difference
[7]; 12 h
  CYP2E1 mRNA expression versus control: significantly lowered
[8]; dose 0.25 μmol/plate
  revertant colonies per plate, TA100: 171 ± 15 CFU
[8]; dose 0.50 μmol/plate
  revertant colonies per plate, TA100: 162 ± 13 CFU
[8]; dose 1.00 μmol/plate
  revertant colonies per plate, TA100: 165 ± 14 CFU
[8]; dose 1.99 μmol/plate
  revertant colonies per plate, TA100: 170 ± 12 CFU
[8]; dose 3.98 μmol/plate
  revertant colonies per plate, TA100: 173 ± 15 CFU
[9]
  CYP3A4 mRNA expression versus control: significantly increase
[10]; dose 0.25 μmol/plate
  revertant colonies per plate, TA98: 33 ± 6 CFU
[10]; dose 0.50 μmol/plate
  revertant colonies per plate, TA98: 30 ± 10 CFU
[10]; dose 1.00 μmol/plate
  revertant colonies per plate, TA98: 27 ± 8 CFU
[10]; dose 1.99 μmol/plate
  revertant colonies per plate, TA98: 32 ± 8 CFU
[10]; dose 3.98 μmol/plate
  revertant colonies per plate, TA98: 28 ± 11 CFU
